{
  "source": "patent US20240206469A1",
  "about": "“PHOSPHORUS USE EFFICIENCY ENHANCERS AS PLANT GROWTH PROMOTORS” (EUROCHEM ANTWERPEN, priority 2021, published 2024)",
  "key": {"Maize": {"system": "Maize", "assay": "Maize growth experiment in pots with mixture of unfertilized potting soil and sand (leaf 5)", "type": "in vivo", "details": "maize, pots with unfertilized potting soil and sand, after 29 days; control 38.1", "protocol": "For a subset of compounds, we performed a more extensive analysis on their root hair inducing effect in a dose-response experiment (Table 3). This confirms that the more simple structures 8.14 and 8.14.6 still retain the activity of compound 8. […] To validate this, we performed a maize growth experiment using compound 8 and the, based on the increase of total root hair length, stronger variant 8.14.6. The experiment was conducted in pots with a mixture of unfertilized potting soil and sand, and leaf 5 was measured after 29 days (Table 4)."}, "[1]": {"system": "SPX1 phosphate starvation biomarker", "assay": "Chemical activity assessment with Arabidopsis pSPX1::GUS reporter line (GUS stained area)", "type": "in vivo, Arabidopsis thaliana", "protocol": "All Arabidopsis plant experiments were performed using the Arabidopsis thaliana Columbia-0 background. The Arabidopsis pSPX1::GUS line is described in the Plant Journal 2008, 54: 965-975. For rice, the cultivar Nipponbare was used. For maize, the cultivars DKC 2931 and B104 were used for regular pot experiments and sand-based pot experiments, respectively. For soybean, the cultivar Primus was used. […] The medium was solidified due to the addition of 0.6% Gelrite, unless stated otherwise. In case of vertical plates (root length and root hair measurements), the medium was supplied with 0.5% of sucrose and 1 μM (low phosphate, 1 μM KH2PO4, 9.9 mM KCl), 10 μM (low phosphate 10 μM KH2PO4, 9.9 mM KCl) or 1.25 mM KH2PO4 (high phosphate). Arabidopsis seeds were stratified for 2 days at 4° C. before germination. Seedlings were germinated in climate-controlled growth chambers at 22° C. under continuous light (100 μmol m^−2 s^−1). Husked rice seeds were germinated on wetted Whatman paper for 2 days at 37° C. and then transferred to Sterivent boxes or square Petri dishes with solid medium. Maize and soybean seeds were wetted 24 hours at room temperature prior to sowing in pots.\nFor the chemical activity assessment 3 to 8 seeds per well of Arabidopsis pSPX1::GUS line were sown in 96-well plates containing 150 μl of low phosphate modMS liquid medium containing 1% of sucrose. Compounds were added in 50 μM concentration, starting from a 5 mM stock of compounds solved in DMSO. Different chemical substances were separately added to different wells. Per plate, 16 control wells were used, 8 containing only the low phosphate medium and 1% DMSO, and 8 containing high phosphate medium and 1% DMSO. 7 days after germination, plates were scanned using a flatbed scanner (EPSON Expression 11000XL) and analyzed for leaf size. After scanning, the growth medium was replaced by GUS staining solution (see Plant Mol. Biol. Rep. 1994, 12: 37-42 for details) and incubated for 1.5 hours at 37° C. The plates were scanned a second time and analyzed for GUS signal area. Measurements of both leaf area and GUS signal area were conducted by filtering out and measure the green and blue signal, respectively using ImageJ software. If the green leaf area was 50% or less than the control, samples were omitted. Additionally, all results were visually screened for leaf size and GUS signal."}, "Arabidopsis": {"system": "Arabidopsis", "assay": "Arabidopsis pot experiment (rosette size, soil phosphate, anthocyanin)", "type": "in vivo, Arabidopsis thaliana", "protocol": "Regular Arabidopsis, soybean and maize pot experiments used an unfertilized potting soil, which was supplemented at the start of the experiment with 50 ml H2O containing 0.25 g/l NH4NO3 and 0.44 g/l (high phosphate) or no (maize and soybean) or 0.11 g/l KH2PO (Arabidopsis) for low phosphate conditions. For the sand-based maize pot experiment, sand was supplemented with 50 ml H2O containing 0.25 g/l NH4NO3 and 0.38 g/l (high phosphate) or 0.02 g/l (low phosphate) KH2PO4. Potassium was balanced via addition of KCl. Compound concentration was 10 μM, calculated based on the total water content after watering, and was added at the start of the experiment (Arabidopsis) or once a week (maize). Indexed chlorophyll contents were received via a SPAD 502 Plus Chlorophyll Meter. All parameters in the sand experiment, except the rate of leaf 4 (measured the first 4 days after emergence), were measured 19 days after sowing. Measurements in the pot experiments with potting soil were done after 4 weeks of growth, except for leaf 5, which was measured at 26 days. One long-term maize pot experiment was conducted with the DKC 2931 (2.5 months) and B104 (3 months) cultivars on the PHENOVISION phenotyping platform as described in Frontiers in Plant Science 2021, 12: 640914, except that an unfertilized potting soil was used and that plants were fertilized with a low-phosphate Hoagland solution. The 2.5× overconcentrated low-phosphate Hoagland solution contained 0.034 g/l KH2PO and 200 mL of this solution was applied twice a week. 1.4 mL of a 10 mM compound solution was added each two weeks to each pot, corresponding to 9.6 mg/g nutrients. 13 plants per condition were used. During the experiment, pictures were taken twice a week for each plants from 6 different angles and the top. […] Extraction and quantification of anthocyanin levels was carried out according to The Plant cell 2013, 25:1641-1656. Anthocyanin levels were quantified by measuring absorption at 530 and 657 nm using a spectrophotometer and normalized to fresh weight input, and expressed relative to the low phosphate control. […]"}},
  "data": [
    {"smiles": "CC1CN(CC(=O)c2c(N)n(C)c(=O)n(C)c2=O)c2ccccc2O1", "note": "(stereo not drawn) [Compound 8, 6-amino-1,3-dimethyl-5-[2-(2-methyl-2,3-dihydro-1,4-benzoxazin-4-yl)acetyl]pyrimidine-2,4-dione]", "values": [
      {"measurement": "Leaf 5", "setting": "Maize", "value": 39.4, "unit": "cm"},
      {"measurement": "Suppression of the SPX1 biomarker (GUS staining)", "setting": "[1]; 7 days of growth in low phosphate, confirmed in two experimental repeats", "value": "practically completely suppressed the SPX1 biomarker"},
      {"measurement": "GUS (SPX1) stained area normalized to the number of seeds", "setting": "[1]; low phosphate, 50 μM, 7 days after germination, compare with low phosphate controls of same plate (Table 5 c3)", "value": 26, "unit": "pixels"},
      {"measurement": "Relative anthocyanin level", "setting": "Arabidopsis; 4-week old plant, relative to low phosphate control = 1", "value": 0.6},
      {"measurement": "Phosphate level in soil (relative value)", "setting": "Arabidopsis; after 4 weeks of growth, relative to low phosphate control = 1", "value": 0.8},
      {"measurement": "Rosette size", "setting": "Arabidopsis; low phosphate, 10 μM, 4 weeks, control 17", "value": 25, "unit": "cm^2"}
    ]}
  ]
}
